Source: patent US20230313199A1, “TARGET FOR MODULATING BODY MASS” (Massachusetts Institute of Technology, priority 2020, published 2023)

Experiments:
[1] = target: T1, NTD of human MFSD7C (Homo sapiens, UniProt Q9UPI3); assay: Heme absorbance-shift assay with wild-type NTD; assay type: binding
T1 construct: Plasmid harboring GST-His-tag-SUMO-NTD (amino acids 1-84); GST-His-tag-SUMO (N, cleaved yes); made in house; host or cells: Escherichia coli Lemo21(DE3)
T1 sequence (Q9UPI3 1-84): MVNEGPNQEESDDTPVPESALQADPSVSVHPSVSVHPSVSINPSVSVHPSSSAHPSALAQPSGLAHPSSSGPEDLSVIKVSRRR
Protocol: (§1) Heme absorbance-shift assay. Hemin was prepared fresh before each experiment. Approximately 20 mg of hemin (Sigma) was placed in a fresh tube and resuspended with 1 mL of DMSO. The hemin solution was slowly diluted while mixing with 1 mL of 2× buffer C (25 mM HEPES-NaOH pH 7.8, 10 mM NaCl), and aggregated hemin was eliminated by passing the solution through a 0.2 μm filter unit. Hemin concentration was determined by diluting the filtered solution with 1× buffer C 1:100 and using the extinction coefficient of 58,400 cm^−1M^−1 at 385 nm. For each reaction, the 200 μL reaction mix containing 100 μM hemin, 25 mM HEPES-NaOH pH 7.8, 10 mM NaCl, and various concentrations of wild-type or mutant NTD protein, was placed in a transparent 96-well plate. Absorbance intensity was measured using Tecan Infinite M200 Pro microplate reader, between 330 and 550 nm using 5 nm steps. The absorbance intensity for dissolved hemin was subtracted from absorbance intensity from hemin incubated with various concentrations of protein.

[2] = tested on: 4B8^ΔN cells; assay: OCR, ECAR, FPT intensity and MMP in 4B8 cells complemented with NTD-truncated MFSD7C; assay type: cell-based, human; conditions: heme 1 hour
Protocol: FIGS. 4A-4H show NTD of MFSD7C mediates heme effect on mitochondrial respiration. FIGS. 4A-4C show comparison of basal OCR (FIG. 4A), maximal OCR (FIG. 4B) and ECAR (FIG. 4C) of THP-1, 4B8, and 4B8^FL and 4B8^ΔN cells treated with vehicle or heme for 1 hour (n=18 separate experiments). […] Cells were incubated with FPT for 6 hrs, washed and reseeded in poly-lysine coated glass bottom dishes. After cells attached to the glass, medium containing 40 μM heme was added. Cells in the same field were imaged immediately and again 1 hour later. Relative FPT fluorescent intensities, normalized to THP-1, from three experiments are shown. (n=3 independent experiments). […] THP-1, 4B8, 4B8^FL and 4B8^ΔN cells were treated with vehicle or heme for 1 hour and MMP was measured by using JC-10 Mitochondrial Membrane Potential Assay Kit followed by flow cytometry. […] Shown are representative Western blotting data (FIG. 4G) and quantification of band intensities from n=3 independent experiments (FIG. 4H). P-values were calculated using two-way ANOVA (*p<0.05, **p<0.01, ***p<0.005). […]
Measurements of OCR, ECAR, and MMP. Oxygen consumption rate (OCR) and extracellular acidification rate (ECAR) were measured using XF96e Seahorse Extracellular Flux Analyzer per manufacturer's protocol. […]

[3] = tested on: mutant HP motif peptide; assay: Heme absorbance-shift assay with mutant HP motif peptide; assay type: binding; conditions: both histidine residues in the HP motif peptide mutated to alanine
Protocol: Peptide synthesis. Wild-type HP motif peptide (HPSALAQPSGLAHP) and mutant HP motif peptide (APSALAQPSGLAAP) were synthesized using solid-phase synthesis and purified using HPLC by the Biopolymers & Proteomics Core at the Koch Institute for Integrative Cancer Research.
as §1

## C=CC1=C(C)c2cc3[n-]c(cc4[n-]c(cc5nc(cc1n2)C(C)=C5C=C)c(C)c4CCC(=O)O)c(CCC(=O)O)c3C.[Fe+2] [heme]
[1]; 100 μM heme, various concentrations of wild-type NTD
  absorbance shift of heme (Soret band, Q band): concentration-dependent increase in the intensities of the Soret band (415 nm) and the Q band (535 nm)
[1]; 415 nm absorbance versus NTD concentration
  heme binding sites per NTD from rate of increase of Soret band intensities: two or more heme binding sites per NTD
[2]
  response to heme (OCR, ECAR, FPT intensity, MMP): little to no response to heme
[3]
  absorbance shift of heme: abolished
